Earlier results in US20040049352A1, “Designing modulators for glycosyltransferases” (priority 2000, published 2004).

Target: T1, GlcNAc-T II (Rattus norvegicus, UniProt Q09326)
T1 sequence (Q09326 1-442): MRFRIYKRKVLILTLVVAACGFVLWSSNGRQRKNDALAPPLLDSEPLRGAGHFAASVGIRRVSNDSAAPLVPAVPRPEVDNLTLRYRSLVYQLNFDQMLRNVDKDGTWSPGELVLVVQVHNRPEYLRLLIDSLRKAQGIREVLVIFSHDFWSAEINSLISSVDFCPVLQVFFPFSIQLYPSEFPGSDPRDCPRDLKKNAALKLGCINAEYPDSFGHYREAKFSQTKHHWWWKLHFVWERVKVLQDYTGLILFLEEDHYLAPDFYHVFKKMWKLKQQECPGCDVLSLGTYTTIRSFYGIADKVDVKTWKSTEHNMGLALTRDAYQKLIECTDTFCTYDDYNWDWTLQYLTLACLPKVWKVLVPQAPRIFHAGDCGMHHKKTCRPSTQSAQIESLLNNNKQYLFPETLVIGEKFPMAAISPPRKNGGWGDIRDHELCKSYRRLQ
Conditions: inhibition studies

| SMILES | binding to the enzyme GlcNAc-T II |
| --- | --- |
| CC(=O)N[C@@H]1[C@@H](O)[C@H](O)[C@@H](CO)O[C@@H]1O [GlcNAc, 2-acetamido-2-deoxy-α-D-glucopyranose] | neither GlcNAc nor GlcNAc-α-l-phosphate binds |
| CC(=O)N[C@H]1[C@@H](OP(=O)(O)O)O[C@H](CO)[C@@H](O)[C@@H]1O [GlcNAc-α-l-phosphate] | neither GlcNAc nor GlcNAc-α-l-phosphate binds |
| CC(=O)N[C@H]1[C@@H](OP(=O)(O)OP(=O)(O)OC[C@H]2O[C@@H](n3ccc(=O)[nH]c3=O)[C@H](O)[C@@H]2O)O[C@H](CO)[C@H](O)[C@@H]1O [UDP-GalNAc] | do bind |
